Reference: US20260285816A1, “Piperazinyl-Modified Quinazolinyl-Aryl Urea Derivative, And Preparation Method And Use Thereof” (Guangxi Normal University, priority 2025, published 2026)
Like-named read-outs stand apart in the source and are kept apart here.

Tests used:
Format in all cases: cell-based, human
[1] = test system: SK-OV-3 cells; assay: CCK-8 anti-proliferative assay, SK-OV-3; details: co-incubated 48 h, read-out: Anti-proliferative activity (IC50 ± standard deviation) SK-OV-3
Experimental: (§1) The obtained quinazolinyl-aryl urea derivatives were screened for compounds with optimal activity using the following method.
(§2) Experimental Procedure for Anti-Proliferative Activity Evaluation: The CCK-8 assay was employed. Cells in logarithmic growth phase were harvested, adjusted to appropriate density, and uniformly seeded into 96-well plates using a multichannel pipette (180 μL cell suspension containing complete medium per well, 5,000 cells/well). Blank control wells (containing basal medium, CCK-8 solution, and DMSO only) were set. Cells were incubated at 37° C. under 5% CO2. After 70% confluency was reached, test compounds (target compounds/positive controls) were added at final concentrations of 1, 2, 4, 6, 8, 12, 16, 24, and 30 μM (3 repeated wells per concentration). Compounds were pre-dissolved in DMSO, sterilized, and diluted with medium before adding 20 μL/well. After co-incubation for designated durations, 10 μL CCK-8 solution was added per well followed by 1-4 h incubation (different cells have different incubation times). […] Inhibition rates were calculated as: (ODcontrol−ODtreatment)/ODcontrol×100%. Median inhibitory concentrations (IC50 values) were derived using Origin v8.0 software.

[2] = test system: immortalized ureteral epithelial cells (SV-HUC-1); assay: CCK-8 anti-proliferative assay, normal cells SV-HUC-1; details: read-out: Anti-proliferative activity (IC50 ± standard deviation) SV-HUC-1
Experimental: as §1, §2

[3] = test system: MG-63 cells; assay: CCK-8 anti-proliferative assay, MG-63; details: co-incubated 48 h, read-out: Anti-proliferative activity (IC50 ± standard deviation) MG-63
Text: (§3) The obtained quinazolinyl-aryl urea derivatives were screened for compounds with optimal activity using the following method. All cell lines employed in this experiment were of human origin, including: bladder cancer cells: J82, UM-UC-3, T24, 5637, pancreatic cancer cells: BxPC-3, PANC-1, osteosarcoma cells: 143B, MG-63, cervical cancer cells: HeLa, breast cancer cells: MCF-7, NSCLC cells: A549, hepatoblastoma cells: Hep G2, and ovarian cancer cells: SK-OV-3, as well as normal cell lines: immortalized ureteral epithelial cells (SV-HUC-1), embryonic lung fibroblasts (WI-38).
(§4) Experimental Procedure for Anti-Proliferative Activity Evaluation: The CCK-8 assay was employed. Cells in logarithmic growth phase were harvested, adjusted to appropriate density, and uniformly seeded into 96-well plates using a multichannel pipette (180 μL cell suspension containing complete medium per well, 5,000 cells/well). Blank control wells (containing basal medium, CCK-8 solution, and DMSO only) were set. Cells were incubated at 37° C. under 5% CO2. After 70% confluency was reached, test compounds (target compounds/positive controls) were added at final concentrations of 1, 2, 4, 6, 8, 12, 16, 24, and 30 μM (3 repeated wells per concentration). Compounds were pre-dissolved in DMSO, sterilized, and diluted with medium before adding 20 μL/well. After co-incubation for designated durations, 10 μL CCK-8 solution was added per well followed by 1-4 h incubation (different cells have different incubation times). The reaction was terminated, and OD (optical density) values at 450 nm were measured using a microplate reader. Inhibition rates were calculated as: (ODcontrol−ODtreatment)/ODcontrol×100%. Median inhibitory concentrations (IC50 values) were derived using Origin v8.0 software.

[4] = test system: 143B cells; assay: CCK-8 anti-proliferative assay, 143B; details: co-incubated 48 h, read-out: Anti-proliferative activity (IC50 ± standard deviation) 143B
Text: as §3, §4

[5] = test system: T24 cells; assay: CCK-8 anti-proliferative assay, T24; details: Table 6; co-incubated 48 h; read-out: Anti-proliferative activity (IC50 ± standard deviation) T24
Text: as §3, §4

[6] = test system: Hep G2 cells; assay: CCK-8 anti-proliferative assay, Hep G2; details: Table 8; co-incubated 48 h; read-out: Anti-proliferative activity (IC50 ± standard deviation) Hep G2
Text: as §3, §4

[7] = test system: 5637 cells; assay: CCK-8 anti-proliferative assay, 5637; details: Table 6; co-incubated 48 h; read-out: Anti-proliferative activity (IC50 ± standard deviation) 5637
Experimental: as §1, §2

[8] = test system: HeLa cells; assay: CCK-8 anti-proliferative assay, HeLa; details: Table 8; co-incubated 48 h; read-out: Anti-proliferative activity (IC50 ± standard deviation) HeLa
Experimental: as §1, §2

[9] = test system: UM-UC-3 cells; assay: CCK-8 anti-proliferative assay, UM-UC-3; details: co-incubated 48 h, read-out: Anti-proliferative activity (IC50 ± standard deviation) UM-UC-3
Experimental: as §1, §2

[10] = test system: MCF-7 cells; assay: CCK-8 anti-proliferative assay, MCF-7; details: Table 8; co-incubated 48 h; read-out: Anti-proliferative activity (IC50 ± standard deviation) MCF-7
Experimental: as §1, §2

[11] = test system: BxPC-3 cells; assay: CCK-8 anti-proliferative assay, BxPC-3; details: co-incubated 48 h, read-out: Anti-proliferative activity (IC50 ± standard deviation) BxPC-3
Text: as §3, §4

[12] = test system: J82 cells; assay: CCK-8 anti-proliferative assay, J82; details: Table 6; co-incubated 48 h; read-out: Anti-proliferative activity (IC50 ± standard deviation) J82
Experimental: as §1, §2

[13] = test system: embryonic lung fibroblasts (WI-38); assay: CCK-8 anti-proliferative assay, normal cells WI-38; details: Table 9, co-incubated 48 h, read-out: Anti-proliferative activity (IC50 ± standard deviation) WI-38
Text: as §3, §4

[14] = test system: A549 cells; assay: CCK-8 anti-proliferative assay, A549; details: Table 8; co-incubated 48 h; read-out: Anti-proliferative activity (IC50 ± standard deviation) A549
Experimental: as §1, §2

[15] = test system: PANC-1 cells; assay: CCK-8 anti-proliferative assay, PANC-1; details: co-incubated 48 h, read-out: Anti-proliferative activity (IC50 ± standard deviation) PANC-1
Text: as §3, §4

[16] = Table 9, normal cells, co-incubated 48 h
[17] = Homo sapiens, MG-63, Table 14, comparative compounds
[18] = Homo sapiens, 143B, Table 14, comparative compounds
[19] = Homo sapiens, UMUC3, Table 14, comparative compounds
[20] = Homo sapiens, BXPC-3, Table 15, comparative compounds
[21] = Homo sapiens, SK-OV-3, Table 15, comparative compounds
[22] = Homo sapiens, PANC-1, Table 15, comparative compounds

Row | SMILES | IC50 [3, 17] | IC50 [4, 18] | IC50 [9, 19] | IC50 [11, 20] | IC50 [1, 21] | IC50 [15, 22] | further results
1 | [NH2][Pt]([NH2])([Cl])[Cl] [CDDP, cisplatin, reference compound] | – | – | – | – | – | – | IC50 ([1]; Table 9): 9.89 ± 0.97 µM; IC50 [2, 16]: 10.3 ± 0.68 µM
2 | COc1cc2ncnc(NCc3cccc(NC(=O)Nc4ccccc4)c3)c2cc1OCCCCCCN1CCN(CCN2CCOCC2)CC1 [Compound 8-1a, N-(3-(((7-methoxy-6-((6-(4-(2-morpholinoethyl)piperazin-1-yl)hexyl)oxy)quinazolin-4-yl)a-mino)methyl)phenyl)-N′-phenylurea] | – | – | – | – | – | – | IC50 ([3]; Table 7): 27.3 ± 1.51 µM; IC50 ([4]; Table 7): 18.7 ± 1.63 µM; IC50 [5]: > 30 µM; IC50 [6]: > 30 µM; IC50 [7]: 26.4 ± 1.63 µM; IC50 [8]: > 30 µM; IC50 ([9]; Table 6): > 30 µM; IC50 [10]: > 30 µM; IC50 ([11]; Table 7): 15.7 ± 0.78 µM; IC50 [12]: > 30 µM; IC50 ([1]; Table 9): 28.1 ± 1.72 µM; IC50 [13]: 25.9 ± 2.74 µM; IC50 [14]: > 30 µM; IC50 [2, 16]: > 30 µM; IC50 ([15]; Table 7): > 30 µM
3 | COc1cc2ncnc(NCc3cccc(NC(=O)Nc4ccccc4)c3)c2cc1OC [Compound I-1, reference compound] | 27.1 ± 1.45 µM | 18.3 ± 1.74 µM | > 30 µM | 18.6 ± 1.66 µM | 28.4 ± 1.46 µM | > 30 µM | –
4 | COc1cc2ncnc(NCc3cccc(NC(=O)Nc4ccc(C)cc4)c3)c2cc1OC [Compound I-2, reference compound] | 11.2 ± 0.67 µM | 6.34 ± 0.56 µM | 11.2 ± 0.85 µM | 10.3 ± 0.59 µM | 10.1 ± 0.69 µM | 24.4 ± 1.69 µM | –
5 | COc1cc2ncnc(NCc3cccc(NC(=O)Nc4ccc(C)cc4C)c3)c2cc1OC [Compound I-3, reference compound] | 12.1 ± 0.76 µM | 5.94 ± 0.33 µM | 9.02 ± 0.74 µM | 7.78 ± 0.69 µM | 9.17 ± 0.58 µM | 17.6 ± 1.48 µM | –
6 | CCc1ccccc1NC(=O)Nc1cccc(CNc2ncnc3cc(OC)c(OC)cc23)c1 [Compound I-5, reference compound] | 13.4 ± 0.95 µM | 6.47 ± 0.28 µM | 10.5 ± 0.71 µM | 6.54 ± 0.61 µM | 7.76 ± 0.38 µM | 12.5 ± 0.97 µM | –
7 | COc1ccccc1NC(=O)Nc1cccc(CNc2ncnc3cc(OC)c(OC)cc23)c1 [Compound I-6, reference compound] | 25.4 ± 1.74 µM | 19.3 ± 1.67 µM | 20.6 ± 2.37 µM | 23.6 ± 1.47 µM | 9.12 ± 0.44 µM | 26.5 ± 2.36 µM | –
8 | COc1ccc(NC(=O)Nc2cccc(CNc3ncnc4cc(OC)c(OC)cc34)c2)cc1 [Compound I-7, reference compound] | > 30 µM | 21.3 ± 1.59 µM | 18.6 ± 1.35 µM | 22.8 ± 1.71 µM | 13.7 ± 0.85 µM | > 30 µM | –
9 | COc1cc2ncnc(NCc3cccc(NC(=O)Nc4ccc(F)cc4)c3)c2cc1OC [Compound I-9, reference compound] | 14.8 ± 1.22 µM | 6.11 ± 0.42 µM | 9.56 ± 0.72 µM | 8.62 ± 0.86 µM | 10 ± 0.53 µM | 10.7 ± 0.95 µM | –
10 | COc1cc2ncnc(NCc3cccc(NC(=O)Nc4ccccc4Cl)c3)c2cc1OC [Compound I-10, reference compound] | 11.1 ± 0.54 µM | 7.74 ± 0.39 µM | 8.77 ± 0.41 µM | 9.85 ± 0.76 µM | 11.2 ± 0.92 µM | 11.7 ± 0.82 µM | –
11 | COc1cc2ncnc(NCc3cccc(NC(=O)NCc4ccccc4)c3)c2cc1OC [Compound I-14, reference compound] | > 30 µM | > 30 µM | > 30 µM | 12.3 ± 0.56 µM | 19.7 ± 0.73 µM | > 30 µM | –
12 | O=C(Nc1ccccc1)Nc1cccc(CNc2ncnc3ccccc23)c1 [Compound II-1, reference compound] | > 30 µM | > 30 µM | > 30 µM | 27.6 ± 1.91 µM | > 30 µM | > 30 µM | –
13 | Cc1cccc(NC(=O)Nc2cccc(CNc3ncnc4ccccc34)c2)c1 [Compound II-2, reference compound] | 19.3 ± 1.76 µM | 13.2 ± 0.86 µM | 22.8 ± 1.38 µM | 15.5 ± 1.71 µM | 19.5 ± 1.37 µM | > 30 µM | –
14 | Cc1ccc(NC(=O)Nc2cccc(CNc3ncnc4ccccc34)c2)cc1 [Compound II-3, reference compound] | 17.8 ± 0.95 µM | 11.3 ± 0.88 µM | 17.8 ± 0.57 µM | 14.3 ± 0.86 µM | 14.7 ± 0.98 µM | > 30 µM | –
15 | CCc1cccc(CC)c1NC(=O)Nc1cccc(CNc2ncnc3ccccc23)c1 [Compound II-5, reference compound] | 10.5 ± 0.82 µM | 7.26 ± 0.35 µM | 8.72 ± 0.36 µM | 9.92 ± 0.41 µM | 8.4 ± 0.53 µM | 14.8 ± 1.24 µM | –
16 | CC(C)(C)c1ccc(NC(=O)Nc2cccc(CNc3ncnc4ccccc34)c2)cc1 [Compound II-9, reference compound] | 9.24 ± 0.71 µM | 10.5 ± 0.43 µM | 9.77 ± 0.52 µM | 13.3 ± 0.87 µM | 7.78 ± 0.69 µM | 15.7 ± 1.52 µM | –
17 | O=C(Nc1ccc(C(F)(F)F)cc1)Nc1cccc(CNc2ncnc3ccccc23)c1 [Compound II-13, reference compound] | 20.8 ± 0.95 µM | 7.56 ± 0.27 µM | 9.63 ± 0.52 µM | 8.43 ± 0.39 µM | 15 ± 1.74 µM | 26.2 ± 2.26 µM | –
18 | O=C(Nc1cccc(CNc2ncnc3ccccc23)c1)Nc1ccc(Cl)cc1Cl [Compound II-17, reference compound] | 8.54 ± 0.59 µM | 10.3 ± 0.67 µM | 7.69 ± 0.56 µM | 14.2 ± 0.82 µM | 9.27 ± 0.55 µM | 20.7 ± 0.96 µM | –
19 | CNC(=O)c1cc(Oc2ccc(NC(=O)Nc3ccc(Cl)c(C(F)(F)F)c3)c(F)c2)ccn1 [Reg, regorafenib, reference compound] | – | – | – | – | – | – | IC50 ([2]; Homo sapiens, SV-HUC1, 48 h): 11.4 ± 0.69 µM
